{"source": "patent US8524809B2", "about": "“Low odor compositions and methods to attain low odor compositions” (Rohm and Haas Company, priority 2010, dated 2013)", "assay": "NaBH4 treatment: headspace composition of acrylic latex AC261", "conditions": "1 week, 500 ppm NaBH4 (with 60 ppm CALBL where combined)", "experimental": "Headspace VOC content in aqueous compositions was determined by a method based on ASTM 3960: Standard Practice for Determining Volatile Organic Compound (VOC) Content of Paints and Related Coatings. This method uses static headspace sampling/GC-MS at 33° C. to determine the headspace concentrations of compounds above aqueous emulsion polymers or waterborne paints.\nWeigh 5 g of each sample into 22 ml headspace vials with aluminum caps and crimp the cap tightly. Repeat the procedure with water blanks to be run, at a minimum, at the beginning and end of a sequence of samples. Analyze the samples via headspace GC-MS. Integrate all peaks in the resulting chromatogram that have a signal greater than five times the root-mean-square baseline noise. Once a satisfactory separation of the volatiles is achieved, mass spectral analysis and/or retention time matching against known compounds is used to identify the compounds detected. Determine the concentration of each calibrated compound in the sample headspace using the linear-least-squares equation from the calibration plot for that compound. Levels of the component in the headspace are reliable to 0.1 ppm by the GC-MS technique."}
{"smiles": "[BH4-].[Na+]", "note": "[NaBH4, sodium borohydride]", "values": [{"measurement": "Level of 2-butenoic acid, butyl ester in headspace", "result": 65, "unit": "ppm"}, {"measurement": "Level of 2-methyl-3-hexanone in headspace", "result": 0, "unit": "ppm"}, {"measurement": "Level of Acetone in headspace", "result": 0, "unit": "ppm"}, {"measurement": "Level of Butanal in headspace", "result": 0, "unit": "ppm"}, {"measurement": "Level of Isobutyraldehyde in headspace", "result": 0, "unit": "ppm"}, {"measurement": "Level of benzaldehyde in headspace", "result": 0, "unit": "ppm"}, {"measurement": "Level of butyl acetate in headspace", "result": 104, "unit": "ppm"}, {"measurement": "Level of butyl acrylate in headspace", "result": 67, "unit": "ppm"}, {"measurement": "Level of butyl propionate in headspace", "result": 207, "unit": "ppm"}, {"measurement": "Level of methyl isobutyrate in headspace", "result": 17, "unit": "ppm"}]}
